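All cell lines were grown in 96-well plates and treated with compound for 48 hours. TGI is the concentration that stops growth completely.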
Tests used:
Assay in all cases: inhibition of tumour cell growth, NCI panel, 48 h
[1] = tested on: K-562 leukemia
[2] = tested on: A549 NSCLC
[3] = tested on: ACHN renal
[4] = tested on: SK-MEL-5 melanoma
[5] = tested on: COLO 205 colon
[6] = tested on: SK-MEL-28 melanoma
[7] = tested on: OVCAR-8 ovarian
[8] = tested on: HL-60(TB) leukemia
[9] = tested on: SNB-75 CNS
[10] = tested on: RXF 393 renal
[11] = tested on: OVCAR-3 ovarian
[12] = tested on: CCRF-CEM leukemia
[13] = tested on: M14 melanoma
[14] = tested on: HOP-62 NSCLC
[15] = tested on: IGROV1 ovarian
[16] = tested on: LOX IMVI melanoma
[17] = tested on: SF-295 CNS
[18] = tested on: XF 498 CNS
[19] = tested on: SNB-78 CNS
[20] = tested on: EKVX NSCLC
[21] = tested on: NCI-H23 lung
[22] = tested on: SNB-19 CNS
[23] = tested on: HCT-15 colon
[24] = tested on: M19-MEL melanoma
[25] = tested on: RPMI-8226 leukemia
[26] = tested on: DMS 114 small cell lung
[27] = tested on: OVCAR-4 ovarian
[28] = tested on: MOLT-4 leukemia
[29] = tested on: DMS 273 small cell lung
[30] = tested on: HCT-116 colon
[31] = tested on: SW-620 colon
[32] = tested on: DLD-1 colon
[33] = tested on: SN12C renal
[34] = tested on: SF-539 CNS
[35] = tested on: A498 renal
[36] = tested on: KM20L2 colon
[37] = tested on: HOP-18 NSCLC
[38] = tested on: SK-OV-3 ovarian
[39] = tested on: HCC-2998 colon
[40] = tested on: 786-0 renal
[41] = tested on: UACC-257 melanoma
[42] = tested on: NCI-H460 lung
[43] = tested on: HT29 colon
[44] = tested on: TK-10 renal
[45] = tested on: CAKI-1 renal
[46] = tested on: HOP-92 NSCLC
[47] = tested on: LXFL 529 NSCLC
[48] = tested on: U251 CNS
[49] = tested on: UACC-62 melanoma
[50] = tested on: UO-31 renal
[51] = tested on: KM12 colon
[52] = tested on: NCI-H226 lung
[53] = tested on: NCI-H522 lung
[54] = tested on: MALME-3M melanoma
[55] = tested on: SK-MEL-2 melanoma
[56] = tested on: OVCAR-5 ovarian
[57] = tested on: SF-268 CNS
[58] = tested on: SR leukemia

Measured: TGI

COc1ccc2oc(C(=O)O)c3c2c1CCC3
not listed: [50] | [51] | [52] | [53] | [54] | [55] | [56] | [57] | [58]
> 100 µM: all other assays above

Fc1cccc2c1cc1ccc3cccc4ccc2c1c34
not listed: [23] | [25] | [26] | [42]
> 100 µM: all other assays above
